Assay results taken from patent publication US20040229791A1, “Compositions and methods of modulating TGF-beta activity by fatty acids” (priority 2002, published 2004).

Assays:
[1] = target: T1, native α2M (Homo sapiens, UniProt P01023); assay: Gel filtration of 3H-arachidonic acid with native α2M; assay type: binding; conditions: 100 μM 3H-arachidonic acid
T1 construct: was purified from pooled citrate-treate human plasma; from tissue; host or cells: pooled citrate-treated human plasma
T1 sequence (P01023 24-1474): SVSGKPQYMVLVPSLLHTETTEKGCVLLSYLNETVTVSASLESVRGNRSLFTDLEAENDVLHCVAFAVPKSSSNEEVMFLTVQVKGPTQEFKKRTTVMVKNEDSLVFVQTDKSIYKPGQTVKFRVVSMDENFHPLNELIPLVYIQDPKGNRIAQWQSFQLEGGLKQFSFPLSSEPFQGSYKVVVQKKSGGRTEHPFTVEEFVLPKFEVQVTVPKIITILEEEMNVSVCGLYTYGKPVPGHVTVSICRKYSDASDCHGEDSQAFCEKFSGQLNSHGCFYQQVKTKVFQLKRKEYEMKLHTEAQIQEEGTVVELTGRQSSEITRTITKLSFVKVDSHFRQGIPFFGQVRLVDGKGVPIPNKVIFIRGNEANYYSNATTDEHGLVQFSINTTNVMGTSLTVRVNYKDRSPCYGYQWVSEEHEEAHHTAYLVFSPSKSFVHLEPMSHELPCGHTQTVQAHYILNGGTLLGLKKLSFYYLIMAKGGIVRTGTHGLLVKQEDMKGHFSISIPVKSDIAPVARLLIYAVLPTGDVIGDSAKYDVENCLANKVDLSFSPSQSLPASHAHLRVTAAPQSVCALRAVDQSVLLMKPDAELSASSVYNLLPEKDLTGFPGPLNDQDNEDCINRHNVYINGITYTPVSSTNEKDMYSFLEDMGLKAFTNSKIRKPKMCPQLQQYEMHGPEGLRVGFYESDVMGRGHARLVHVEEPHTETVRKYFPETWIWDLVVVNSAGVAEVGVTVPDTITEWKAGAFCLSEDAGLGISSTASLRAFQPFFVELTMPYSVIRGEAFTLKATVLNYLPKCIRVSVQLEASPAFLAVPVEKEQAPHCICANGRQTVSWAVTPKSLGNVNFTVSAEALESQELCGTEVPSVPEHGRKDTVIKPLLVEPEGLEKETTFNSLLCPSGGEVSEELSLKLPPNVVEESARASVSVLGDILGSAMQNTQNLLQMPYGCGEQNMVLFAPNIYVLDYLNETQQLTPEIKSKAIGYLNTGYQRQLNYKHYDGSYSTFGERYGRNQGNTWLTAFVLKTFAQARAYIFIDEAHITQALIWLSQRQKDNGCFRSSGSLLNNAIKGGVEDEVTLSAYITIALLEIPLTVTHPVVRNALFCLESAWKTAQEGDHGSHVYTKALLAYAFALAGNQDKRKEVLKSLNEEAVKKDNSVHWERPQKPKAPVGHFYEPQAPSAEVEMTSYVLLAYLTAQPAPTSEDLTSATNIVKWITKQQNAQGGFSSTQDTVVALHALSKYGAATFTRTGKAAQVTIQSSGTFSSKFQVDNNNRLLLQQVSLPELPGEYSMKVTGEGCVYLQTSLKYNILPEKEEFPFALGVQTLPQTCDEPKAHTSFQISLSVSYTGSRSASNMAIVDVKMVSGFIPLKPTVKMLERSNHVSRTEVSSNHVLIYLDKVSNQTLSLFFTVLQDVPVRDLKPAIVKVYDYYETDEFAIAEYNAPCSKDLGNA
Description: The interaction of ^3H-arachidonic acid and α2M* was determined using gel filtration. ^3H-arachidonic acid was incubated with native ? 2M or ? 2M*, which was activated by methylamine. After incubation at room temperature for 30 min, the reaction mixture was subjected to gel filtration chromatography on Sephacryl® S-300 HR. The ^3H-arachidonic acid radioactivity and concentrations of. α2M* or native ? 2M in the eluents were determined by scintillation counting and 5% SDS-PAGE followed by Coomassie blue staining, respectively. […] The small peak, which appeared in the flow-through fractions, contained the ^3H-arachidonic acid- ? 2M* complex and free ? 2M*, which was identified by Coomassie blue staining (FIG. 5, inset). The subsequent large peak, which appeared in the column bed volume fractions, was identified as free ^3H-arachidonic acid.
Gel Filtration of ^3H-arachidonic acid-α2M* Complexes—The reaction mixture contained 100 μM ^3H-arachidonic acid with or without 10 μg of ? 2M*, which was activated by methylamine and plasmin as described previously (12,22), or native ? […] The column was then eluted with the same phosphate buffer and the fractional volume was ˜1 ml, 20 μl of which was counted with a scintillation counter and an another 20 μl of which was analyzed by SDS-PAGE followed by Coomassie blue staining (to locate fractions containing. α2M* or native ? 2M).

[2] = system: p3TP-Lux in transfected Mv1Lu cells; assay: Luciferase assay, p3TP-Lux TGF-β-responsive promoter construct; assay type: cell-based, mink; conditions: for reversal of α2M* inhibition of TGF-β2-induced luciferase activity: 200 μg/ml α2M*
Description: One of the prominent biological activities of TGF- ? is transcriptional activation of plasminogen activator inhibitor-1 (PAI-1) and fibronectin (1-4). The effect of fatty acids on the inhibition by. α2M* of a TGF- ? -responsive promoter construct p3TP-Lux was determined in transfected Mv1Lu cells. The p3TP-Lux contains the PAI-1 promoter and 3 repeats of a phorbol-12-myristate-13-acetate (TPA)-responsive element (29).
Luciferase Assay—Mv1Lu cells which had been plated on 12-well clustered dishes at a cell density of approximately 0.8-1.0×10^5 cells/plate were transfected with 4-6 μg of p3TP-Lux using the calcium phosphate method (24). After 12 hr, the transfected cells were washed with phosphate buffered saline and allowed to grow in a medium containing 10% fetal calf serum for 12 hr. The medium was changed to DMEM with low serum concentration (0.2% fetal calf serum) and the cells were incubated for 4-6 hr. The cells were then treated for 20 hr with TGF-.β2 (0, 50 or 100 pM), α2M* (0 or 200 μg/ml) and arachidonic acid (0, 12.5 or 25 μM) in the same low-serum medium. The cells were harvested and assayed for luciferase activity using the Promega kit according to the manufacturer's protocol. The luciferase activity was assayed in triplicate cell cultures and measured as arbitrary units (A.U.).

CCCCC/C=C\C/C=C\C/C=C\C/C=C\CCCC(=O)O [arachidonic acid] was tested. Which “complex formation with native α2M” value [1] did it give?
The value was “no complex formation”.

And the “reversal of α2M* inhibition of TGF-β2-induced luciferase activity” value ([2]; 12.5 μM arachidonic acid)?
Its value is “completely reversed”.

What about the “reversal of α2M* inhibition of TGF-β2-induced luciferase activity” value ([2]; 25 μM arachidonic acid) of the same compound?
Its value is “completely reversed”.

What about the “effect on luciferase activity in cells treated with and without TGF-β2 in the absence of α2M*” value ([2]; 12.5 and 25 μM, absence of α2M*) of the same compound?
The value was “did not influence the luciferase activity”.
